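Step 1: Grow cells in 96-well plates. Step 2: Expose to compound for 48 hours at 5 concentrations. Step 3: Interpolate endpoints linearly; if unreached, use highest concentration. GI50 = concentration required for 50% inhibition of growth.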 The source made the active and inactive calls. Rule as the data show it: active = GI50 up to about 1.1 µM and inactive = higher.
Experiments:
Assay in all cases: NCI anticancer screen, dose series, 48 h
[1] = tested on: ACHN
[2] = tested on: CCRF-CEM
[3] = tested on: DU-145
[4] = tested on: HCC 2998
[5] = tested on: HCT-116
[6] = tested on: HL-60
[7] = tested on: HT-29
[8] = tested on: IGROV-1
[9] = tested on: KM12
[10] = tested on: M14
[11] = tested on: MCF7
[12] = tested on: MDA-MB-231
[13] = tested on: Malme-3M
[14] = tested on: OVCAR-5
[15] = tested on: PC-3
[16] = tested on: RXF 393
[17] = tested on: SK-MEL-28
[18] = tested on: SK-MEL-2
[19] = tested on: SW-620
[20] = tested on: T47D

Row | SMILES | GI50 [1] | GI50 [2] | GI50 [3] | GI50 [4] | GI50 [5] | GI50 [6] | GI50 [7] | GI50 [8] | GI50 [9] | GI50 [10] | GI50 [11] | GI50 [12] | GI50 [13] | GI50 [14] | GI50 [15] | GI50 [16] | GI50 [17] | GI50 [18] | GI50 [19] | GI50 [20]
1 | Cn1c2c3c(F)c(F)ccc3nc-2cc2ccccc21 | 0.583 µM (active) | 1.91 µM (inactive) | 1.34 µM (inactive) | 1.32 µM (inactive) | 0.125 µM (active) | 13 µM (inactive) | 1.52 µM (inactive) | 3.42 µM (inactive) | 0.927 µM (active) | 2.11 µM (inactive) | 0.431 µM (active) | 3.3 µM (inactive) | 2.7 µM (inactive) | 1.92 µM (inactive) | 2.85 µM (inactive) | 4.05 µM (inactive) | 4.17 µM (inactive) | 3.27 µM (inactive) | 1.49 µM (inactive) | 0.582 µM (active)
2 | O=C(Nc1ccccc1)c1cc(S(=O)(=O)N2CCNNC2=O)c(S)cc1Cl | > 100 µM (inactive) | 71.9 µM (inactive) | 90.4 µM (inactive) | > 100 µM (inactive) | 40.1 µM (inactive) | > 100 µM (inactive) |  | > 100 µM (inactive) | > 100 µM (inactive) | > 100 µM (inactive) | > 100 µM (inactive) | 39 µM (inactive) | 56.1 µM (inactive) | > 100 µM (inactive) | > 100 µM (inactive) | 21.3 µM (inactive) | > 100 µM (inactive) | > 100 µM (inactive) | 33 µM (inactive) | 44.5 µM (inactive)
3 | Cc1ccc([N+](=O)[O-])c2c(NCCC[N+](C)(C)[O-])c3ccccc3nc12 | 5.57 µM (inactive) | 2.07 µM (inactive) | 1.43 µM (inactive) | 0.841 µM (active) | 1.52 µM (inactive) | 4 µM (inactive) | 1.48 µM (inactive) | 1.19 µM (inactive) | 1.79 µM (inactive) | 2.34 µM (inactive) | 0.401 µM (active) | 1.86 µM (inactive) | 1.22 µM (inactive) | 3.41 µM (inactive) | 0.755 µM (active) | 1.35 µM (inactive) | 3.68 µM (inactive) | 0.773 µM (active) | 2.18 µM (inactive) | 0.916 µM (active)
4 | CS(=O)(=O)OC1CCN(C2(c3cccc(O)c3)CCCCC2)CC1 | > 100 µM (inactive) | 22.6 µM (inactive) | 82.6 µM (inactive) | 20.6 µM (inactive) | 31.8 µM (inactive) | 16.5 µM (inactive) | 36.1 µM (inactive) | 28.7 µM (inactive) | > 100 µM (inactive) | 43 µM (inactive) | 31.8 µM (inactive) | 73.5 µM (inactive) | > 100 µM (inactive) | > 100 µM (inactive) | 33.6 µM (inactive) | 64.6 µM (inactive) | 60.4 µM (inactive) | > 100 µM (inactive) | 29.9 µM (inactive) | 70.6 µM (inactive)
5 | CC(=O)C(N1CCCCC1)C(O)(C(F)(F)F)C(F)(F)F (stereo unspecified) | > 100 µM (inactive) | 37.3 µM (inactive) | > 100 µM (inactive) | > 100 µM (inactive) | 58.3 µM (inactive) | > 100 µM (inactive) | > 100 µM (inactive) | 89.9 µM (inactive) | > 100 µM (inactive) | > 100 µM (inactive) | > 100 µM (inactive) | > 100 µM (inactive) | > 100 µM (inactive) | > 100 µM (inactive) | 36.6 µM (inactive) | 38.5 µM (inactive) | > 100 µM (inactive) |  | 98.2 µM (inactive) | 43.9 µM (inactive)
6 | CO/N=C(/C(=O)OC)c1ccccc1COc1ccccc1C(F)(F)F | 83.6 µM (inactive) | 13 µM (inactive) | 37 µM (inactive) | 27.9 µM (inactive) | 25.1 µM (inactive) | 10.5 µM (inactive) | 26.1 µM (inactive) | 20.7 µM (inactive) | 30.2 µM (inactive) | 26.9 µM (inactive) | 39.4 µM (inactive) | 80.9 µM (inactive) | 11.6 µM (inactive) | > 100 µM (inactive) | 33.5 µM (inactive) | > 100 µM (inactive) | 37.8 µM (inactive) | 20.8 µM (inactive) |  | 25.2 µM (inactive)
7 | CN1CCC(O)(C(C)(C)C)CC1 | > 100 µM (inactive) | > 100 µM (inactive) | > 100 µM (inactive) | > 100 µM (inactive) | > 100 µM (inactive) | > 100 µM (inactive) | > 100 µM (inactive) | > 100 µM (inactive) | > 100 µM (inactive) | > 100 µM (inactive) | > 100 µM (inactive) | > 100 µM (inactive) | > 100 µM (inactive) | > 100 µM (inactive) | > 100 µM (inactive) | > 100 µM (inactive) | > 100 µM (inactive) | > 100 µM (inactive) | > 100 µM (inactive) | > 100 µM (inactive)
8 | O=C(Nc1ccccc1)N1N=C(c2ccccc2)C1c1ccccc1 (stereo unspecified) | 22 µM (inactive) |  | > 100 µM (inactive) | 31.3 µM (inactive) | 17.9 µM (inactive) | 21.9 µM (inactive) | 20.5 µM (inactive) | 40.4 µM (inactive) | 29.9 µM (inactive) | 20 µM (inactive) | 20.2 µM (inactive) | 62.1 µM (inactive) | 30.5 µM (inactive) | 23.2 µM (inactive) | 18.8 µM (inactive) | 17.3 µM (inactive) | 53.7 µM (inactive) |  | 35.8 µM (inactive) | 59.6 µM (inactive)
9 | O=C1C2Cc3c(n(C(=O)c4ccccc4)c4ccccc34)CC2C(=O)N1c1ccc(Nc2ccc(N3C(=O)C4Cc5c(n(C(=O)c6ccccc6)c6ccccc56)CC4C3=O)cc2)cc1 (stereo unspecified) | > 100 µM (inactive) | 40.4 µM (inactive) | > 100 µM (inactive) | > 100 µM (inactive) | > 100 µM (inactive) | 8.85 µM (inactive) | > 100 µM (inactive) | > 100 µM (inactive) | > 100 µM (inactive) | 30.9 µM (inactive) | > 100 µM (inactive) | 24.3 µM (inactive) | > 100 µM (inactive) | > 100 µM (inactive) | > 100 µM (inactive) | > 100 µM (inactive) | > 100 µM (inactive) |  |  | > 100 µM (inactive)
10 | O=C(c1ccccc1)c1ccc(-n2c3ccccc3c3ccc4c(c32)C(=O)C=CC4=O)cc1 | 4.38 µM (inactive) | 1.11 µM (active) | 10.5 µM (inactive) | 11.2 µM (inactive) | 5.2 µM (inactive) | 2.8 µM (inactive) | 2.82 µM (inactive) | 16 µM (inactive) | 17.5 µM (inactive) | 9.2 µM (inactive) | 3.21 µM (inactive) | 8.24 µM (inactive) |  | 18.7 µM (inactive) | 11.7 µM (inactive) | 5.24 µM (inactive) | 8.83 µM (inactive) | 19.3 µM (inactive) | 3.88 µM (inactive) | 3.1 µM (inactive)
11 | N#Cc1nc(-c2ccc(-c3nc(C#N)c(N)o3)cc2)oc1N | > 10 µM (inactive) | > 10 µM (inactive) | > 10 µM (inactive) | > 10 µM (inactive) | > 10 µM (inactive) | > 10 µM (inactive) | > 10 µM (inactive) | > 10 µM (inactive) | > 10 µM (inactive) | > 10 µM (inactive) | > 10 µM (inactive) | > 10 µM (inactive) | > 10 µM (inactive) |  | > 10 µM (inactive) | > 10 µM (inactive) | > 10 µM (inactive) |  | > 10 µM (inactive) | > 10 µM (inactive)
12 | CC(=O)Nc1ccc(Nc2cc(O)nc(O)n2)cc1 | > 100 µM (inactive) |  | > 100 µM (inactive) | > 100 µM (inactive) | > 100 µM (inactive) | > 100 µM (inactive) | > 100 µM (inactive) | > 100 µM (inactive) | > 100 µM (inactive) | > 100 µM (inactive) | > 100 µM (inactive) | > 100 µM (inactive) | > 100 µM (inactive) | > 100 µM (inactive) | > 100 µM (inactive) | > 100 µM (inactive) | > 100 µM (inactive) |  | > 100 µM (inactive) | 14.1 µM (inactive)
13 | Cc1ccc2nc3sc(=O)sc3nc2c1 [CHINOMETHIONAT] | 15.2 µM (inactive) | 31.5 µM (inactive) | > 100 µM (inactive) | 16.2 µM (inactive) | 17.2 µM (inactive) | 16.6 µM (inactive) | 17.1 µM (inactive) | 16.1 µM (inactive) | 15.6 µM (inactive) | 16.9 µM (inactive) | 17.6 µM (inactive) | 17.3 µM (inactive) |  | 16.7 µM (inactive) | 14.3 µM (inactive) | 18.1 µM (inactive) | 17.9 µM (inactive) | 14.4 µM (inactive) | 24.1 µM (inactive) | 83.6 µM (inactive)
14 | CC1=CCC[C@@](C)(O)[C@@H]2C[C@H]3C(CSc4ccccc4)C(=O)O[C@H]3[C@@H](O2)[C@H](C)CCC1 (stereo partly specified) | 12.9 µM (inactive) | > 100 µM (inactive) | 25.6 µM (inactive) | 15.8 µM (inactive) | 21.4 µM (inactive) | > 100 µM (inactive) |  | 14.5 µM (inactive) | 9.18 µM (inactive) | 13.7 µM (inactive) | 13.8 µM (inactive) | 28.1 µM (inactive) | 13.7 µM (inactive) | 15.9 µM (inactive) | 6.62 µM (inactive) | 13.7 µM (inactive) | 21 µM (inactive) | 17.2 µM (inactive) | 27 µM (inactive) | 22.2 µM (inactive)
